Key:
HeLa [1] = assay: Cytotoxicity against human HeLa cells by MTT assay; format: functional, cell-based
DU-145 [2] = assay: Cytotoxicity against human DU145 cells by MTT assay; format: functional, cell-based
HeLa [3] = assay: Ratio of cyclophosphamide IC50 to compound IC50 for human HeLa cells; format: functional
DU-145 [4] = assay: Ratio of cyclophosphamide IC50 to compound IC50 for human DU145 cells; format: functional
HeLa [5] = assay: Ratio of beta-hydroxyisovalerylshikonin IC50 to compound IC50 for human HeLa cells; format: functional
DU-145 [6] = assay: Ratio of beta-hydroxyisovalerylshikonin IC50 to compound IC50 for human DU145 cells; format: functional

Structure (SMILES) | IC50 (HeLa [1]) [µM] | IC50 (DU-145 [2]) [µM] | Ratio IC50 (HeLa [3]) | Ratio IC50 (DU-145 [4]) | Ratio IC50 (HeLa [5]) | Ratio IC50 (DU-145 [6])
CC(C)=CC[C@@H](OC(=O)CCO)C1=CC(=O)c2c(O)ccc(O)c2C1=O | 67.6 | 55.3 |  |  |  | 
CCC(O)(CC)CC(=O)O[C@H](CC=C(C)C)C1=CC(=O)c2c(O)ccc(O)c2C1=O | 52 | 67 |  |  |  | 
CC(=O)OCCC(=O)O[C@H](CC=C(C)C)C1=CC(=O)c2c(O)ccc(O)c2C1=O | 17.3 | 15.7 |  |  |  | 
CCCCC(CC(=O)O[C@H](CC=C(C)C)C1=CC(=O)c2c(O)ccc(O)c2C1=O)OC(C)=O (stereo partly drawn) | 73.5 | 67.7 |  |  |  | 
CC(C)=CC[C@@H](OC(=O)c1ccoc1)C1=CC(=O)c2c(O)ccc(O)c2C1=O | > 100 | > 100 |  |  |  | 
CC(C)=CC[C@@H](OC(=O)c1ccco1)C1=CC(=O)c2c(O)ccc(O)c2C1=O | 80.3 | > 100 |  |  |  | 
CC(C)=CC[C@@H](OC(=O)C1CCOC1)C1=CC(=O)c2c(O)ccc(O)c2C1=O (stereo partly drawn) | 73.5 | 47.5 |  |  |  | 
CC(C)=CC[C@@H](OC(=O)C1CCCO1)C1=CC(=O)c2c(O)ccc(O)c2C1=O (stereo partly drawn) | 17 | 10.5 | 4 | 5 |  | 
CC(C)=CC[C@@H](OC(=O)C1CCCOC1)C1=CC(=O)c2c(O)ccc(O)c2C1=O (stereo partly drawn) | 60.5 | 29.7 |  |  |  | 
CC(C)=CC[C@@H](OC(=O)C1CCCCO1)C1=CC(=O)c2c(O)ccc(O)c2C1=O (stereo partly drawn) | > 100 | 24.7 |  |  |  | 
CC(C)=CC[C@@H](OCCO)C1=CC(=O)c2c(O)ccc(O)c2C1=O | 18.6 | 9.9 | 4 | 5 | 3 | 2
CC(=O)OCCO[C@H](CC=C(C)C)C1=CC(=O)c2c(O)ccc(O)c2C1=O | 41.5 | 15.5 |  |  |  | 
COCCO[C@H](CC=C(C)C)C1=CC(=O)c2c(O)ccc(O)c2C1=O | 62.4 | 43.2 |  |  |  | 
CC[C@@](C)(O)CC(=O)O[C@H](CC=C(C)C)C1=CC(=O)c2c(O)ccc(O)c2C1=O | 17.9 | 12.7 |  |  |  | 
CC(C)=CC[C@@H](OC[C@@H](C)O)C1=CC(=O)c2c(O)ccc(O)c2C1=O | 22.5 | 14.3 |  |  |  | 
CC(C)=CC[C@@H](OC[C@H](C)O)C1=CC(=O)c2c(O)ccc(O)c2C1=O | 40.3 | 24.5 |  |  |  | 
CCCCC(C)(O)CC(=O)O[C@H](CC=C(C)C)C1=CC(=O)c2c(O)ccc(O)c2C1=O (mixture of isomers) | 60.6 | 76.5 |  |  |  | 
CCCC(O)CC(=O)O[C@H](CC=C(C)C)C1=CC(=O)c2c(O)ccc(O)c2C1=O (mixture of isomers) | 59.3 | > 100 |  |  |  | 

Structure (SMILES) | IC50 (HeLa [1]) [µM] | IC50 (DU-145 [2]) [µM] | Ratio IC50 (HeLa [3]) | Ratio IC50 (DU-145 [4]) | Ratio IC50 (HeLa [5]) | Ratio IC50 (DU-145 [6])
CCCCC(O)CC(=O)O[C@H](CC=C(C)C)C1=CC(=O)c2c(O)ccc(O)c2C1=O (mixture of isomers) | 72.2 | 45.3 |  |  |  | 
CC(C)=CC[C@@H](OC(=O)CC(O)c1ccccc1)C1=CC(=O)c2c(O)ccc(O)c2C1=O (mixture of isomers) | 44.5 | 17 |  |  |  | 
CCC(C)(O)CC(=O)O[C@H](CC=C(C)C)C1=CC(=O)c2c(O)ccc(O)c2C1=O (mixture of isomers) | 25.2 | 16 |  |  |  | 
CCCC(C)(O)CC(=O)O[C@H](CC=C(C)C)C1=CC(=O)c2c(O)ccc(O)c2C1=O (mixture of isomers) | 72 | 75 |  |  |  | 
CC(C)=CC[C@@H](OC(=O)CC(C)(O)C(C)C)C1=CC(=O)c2c(O)ccc(O)c2C1=O (mixture of isomers) | 27.7 | 16.9 |  |  |  | 
CCCCCCC(C)(O)CC(=O)O[C@H](CC=C(C)C)C1=CC(=O)c2c(O)ccc(O)c2C1=O (mixture of isomers) | > 100 | > 100 |  |  |  | 
CC(C)=CC[C@@H](OC(=O)CC(C)(O)c1ccccc1)C1=CC(=O)c2c(O)ccc(O)c2C1=O (mixture of isomers) | 85.7 | > 100 |  |  |  | 
CCCC(CC(=O)O[C@H](CC=C(C)C)C1=CC(=O)c2c(O)ccc(O)c2C1=O)OC(C)=O (mixture of isomers) | 51.2 | 55.7 |  |  |  | 
CC(C)=CC[C@@H](OCC(C)O)C1=CC(=O)c2c(O)ccc(O)c2C1=O (mixture of isomers) | 24.7 | 16.1 |  |  |  | 
CCC(O)CO[C@H](CC=C(C)C)C1=CC(=O)c2c(O)ccc(O)c2C1=O (mixture of isomers) | 28.7 | 16.4 |  |  |  | 
CC(=O)OC(C)CO[C@H](CC=C(C)C)C1=CC(=O)c2c(O)ccc(O)c2C1=O (mixture of isomers) | 40.1 | 16.6 |  |  |  | 
CCC(CO[C@H](CC=C(C)C)C1=CC(=O)c2c(O)ccc(O)c2C1=O)OC(C)=O (mixture of isomers) | 44 | 25.4 |  |  |  | 
COC(C)CO[C@H](CC=C(C)C)C1=CC(=O)c2c(O)ccc(O)c2C1=O (mixture of isomers) | 53.4 | 16.6 |  |  |  | 
CCC(CO[C@H](CC=C(C)C)C1=CC(=O)c2c(O)ccc(O)c2C1=O)OC (mixture of isomers) | 63.5 | 45.7 |  |  |  | 
CC[C@](C)(O)CC(=O)O[C@H](CC=C(C)C)C1=CC(=O)c2c(O)ccc(O)c2C1=O (racemic) | 30.2 | 20.5 |  |  |  | 
CC(C)=CC[C@@H](OC(=O)CC(C)(C)O)C1=CC(=O)c2c(O)ccc(O)c2C1=O [BETA-HYDROXYISOVALERYLSHIKONIN] | 55 | 16.8 |  |  |  | 
O=P1(N(CCCl)CCCl)NCCCO1 (stereo not drawn) [CYCLOPHOSPHAMIDE ANHYDROUS] | 71.4 | 52.5 |  |  |  | 
O=c1[nH]cc(F)c(=O)[nH]1 [FLUOROURACIL] | > 100 | > 100 |  |  |  | 
